Test results: PubChem BioAssay AID1259408 (Genetic Toxicology Data Bank (GENE-TOX), 2018)
Calls of active or inactive are those of the source. How the calls were made is not given here.

System: GENE-TOX genotoxicity assays, various organisms and cells
Test: GENE-TOX mutagenicity studies
Details: for call: Assay Type: In vivo carcinogenicity studies
[1] = Species/Cell Type: Drosophila melanogaster, Assay Type: Sex-linked recessive lethal gene mutation, Assay Code: SRL+, Evaluation Type: Evaluation A (Pre-1980)
[2] = Species/Cell Type: Escherichia coli WP2 UVRA, Assay Type: Tryptophan reverse gene mutation, Assay Code: WPU+, Evaluation Type: Evaluation A (Pre-1980)
[3] = Species/Cell Type: Human diploid fibroblasts, Assay Type: Unscheduled DNA synthesis (UDS) in vitro, DNA effects, Assay Code: UDH-, Evaluation Type: Evaluation A (Pre-1980)
[4] = Species/Cell Type: Human lymphocytes, Assay Type: Sister-chromatid exchange (SCE) in vitro, Assay Code: SCL+, Evaluation Type: Evaluation B (Post-1980)
[5] = Species/Cell Type: Human, Assay Type: Sister-chromatid exchange (SCE) in vitro, Assay Code: SC1+, Evaluation Type: Evaluation B (Post-1980)
[6] = Species/Cell Type: Saccharomyces cerevisiae, Assay Type: Mitotic recombination or gene conversion, Assay Code: YEC-, Evaluation Type: Evaluation A (Pre-1980)
[7] = Species/Cell Type: Syrian hamster embryo (SHE) cells, Assay Type: Cell transformation, clonal assay, Assay Code: CTC+, Evaluation Type: Evaluation A (Pre-1980)
[8] = Species/Cell Type: Human lymphocytes, Assay Type: Sister-chromatid exchange (SCE) in vitro, Assay Code: SCL+D, Dose Response: With dose response, Evaluation Type: Evaluation B (Post-1980)
[9] = Species/Cell Type: Human, Assay Type: Sister-chromatid exchange (SCE) in vitro, Assay Code: SC1+D, Dose Response: With dose response, Evaluation Type: Evaluation B (Post-1980)
[10] = Species/Cell Type: Schizosaccharomyces pombe, Assay Type: Reverse gene mutation, Assay Code: YEZ+, Evaluation Type: Evaluation A (Pre-1980)
[11] = Species/Cell Type: Salmonella typhimurium (one or more of the five standard strains: TA98, TA100, TA1535, TA1537, and TA1538), Assay Type: Histidine reverse gene mutation, Ames assay, Assay Code: SALT, Evaluation Type: Evaluation A (Pre-1980)
[12] = Species/Cell Type: Salmonella typhimurium (one or more of the five standard strains: TA98, TA100, TA1535, TA1537, and TA1538), Assay Type: Histidine reverse gene mutation, Ames assay, Assay Code: SAL+*, Activation: With metabolic activation, Evaluation Type: Evaluation A (Pre-1980)

**Q.** Which mutagenic call (Species/Cell Type: Bacillus subtilis (H17 vs M45), Assay Type: Rec-assay, spot test, DNA effects (bacterial DNA repair), Assay Code: REW+, Evaluation Type: Evaluation A (Pre-1980)) does the source give for `O=C1OCCN1N=Cc1ccc([N+](=O)[O-])o1` here?
**A.** active; positive

**Q.** And the mutagenic call [1]?
**A.** active; positive

**Q.** What about the mutagenic call (Species/Cell Type: Escherichia coli WP2, Assay Type: Tryptophan reverse gene mutation, Assay Code: WP2+, Evaluation Type: Evaluation A (Pre-1980)) of the same compound?
**A.** active; positive

**Q.** What about the mutagenic call [2] of the same compound?
**A.** active; positive

**Q.** And the mutagenic call [3]?
**A.** inactive; negative

**Q.** What about the mutagenic call [4] of the same compound?
**A.** active; positive

**Q.** What about the mutagenic call (Species/Cell Type: Human lymphocytes, Assay Type: Sister-chromatid exchange (SCE) in vitro, Assay Code: SCLT, Evaluation Type: Evaluation A (Pre-1980)) of the same compound?
**A.** no conclusion

**Q.** What about the mutagenic call [5] of the same compound?
**A.** active; positive

**Q.** What about the mutagenic call (Species/Cell Type: Human, Assay Type: Sister-chromatid exchange (SCE) in vitro, Assay Code: SC1T, Evaluation Type: Evaluation A (Pre-1980)) of the same compound?
**A.** no conclusion

**Q.** How did the mutagenic call [6] turn out when `COc1cc(/C=C/C(=O)CC(=O)/C=C/c2ccc(O)c(OC)c2)ccc1O` was run?
**A.** inactive; negative

**Q.** For `CCSCC[C@H](N)C(=O)O`, which mutagenic call (Species/Cell Type: Escherichia coli polA (W3110 vs P3478), Assay Type: Rec-assay, DNA effects (bacterial DNA repair), Assay Code: RE2T, Evaluation Type: Evaluation A (Pre-1980)) is on record?
**A.** no conclusion

**Q.** What about the mutagenic call (Species/Cell Type: Escherichia coli polA (W3119 vs P3478), Assay Type: Rec-assay, DNA effects (bacterial DNA repair), Assay Code: RE1T, Evaluation Type: Evaluation A (Pre-1980)) of the same compound?
**A.** no conclusion

**Q.** What about the mutagenic call [3] of the same compound?
**A.** inactive; negative

**Q.** What about the mutagenic call [4] of the same compound?
**A.** active; positive

**Q.** And the mutagenic call [5]?
**A.** active; positive

**Q.** What about the mutagenic call (Species/Cell Type: Mammalian polychromatic erythrocytes, Assay Type: Micronucleus test, chromosome aberrations, Assay Code: MNT+, Evaluation Type: Evaluation A (Pre-1980)) of the same compound?
**A.** active; positive

**Q.** What about the mutagenic call (Species/Cell Type: Mouse, Sex: Male, Assay Type: Sperm morphology, Assay Code: SPI+, Evaluation Type: Evaluation A (Pre-1980)) of the same compound?
**A.** active; positive

**Q.** And the mutagenic call (Species/Cell Type: Saccharomyces cerevisiae, Assay Type: Mitotic recombination or gene conversion, Assay Code: YEH-, Evaluation Type: Evaluation A (Pre-1980))?
**A.** inactive; negative

**Q.** What about the mutagenic call (Species/Cell Type: Salmonella typhimurium (one or more of the five standard strains: TA98, TA100, TA1535, TA1537, and TA1538), Assay Type: Histidine reverse gene mutation, Ames assay, Assay Code: SAL-, Evaluation Type: Evaluation A (Pre-1980)) of the same compound?
**A.** inactive; negative

**Q.** What about the mutagenic call (Species/Cell Type: Salmonella typhimurium, Assay Type: Forward and reverse gene mutation, host-mediated assay, Assay Code: HMA-, Evaluation Type: Evaluation A (Pre-1980)) of the same compound?
**A.** inactive; negative

**Q.** And the mutagenic call [7]?
**A.** active; positive

**Q.** What does the source list for `CN(C)P(=O)(N1CC1)N1CC1`?
**A.** mutagenic call [1]: active; positive; mutagenic call [8]: active; positive; mutagenic call [9]: active; positive; mutagenic call (Species/Cell Type: Nonhuman, Assay Type: Chromosome aberrations in vitro, Assay Code: CY&+, Evaluation Type: Evaluation A (Pre-1980)): active; positive; mutagenic call [10]: active; positive

**Q.** `O=[N+]([O-])c1ccc(-c2nc(NCC(O)CO)c3ccccc3n2)s1` (stereo not drawn) was tested. Which mutagenic call [11] did it give?
**A.** no conclusion

**Q.** Which mutagenic call (Species/Cell Type: Mammalian polychromatic erythrocytes, Assay Type: Micronucleus test, chromosome aberrations, Assay Code: MNTT, Evaluation Type: Evaluation B (Post-1980)) does the source give for `Oc1ccc(Cl)cc1Cc1cc(Cl)ccc1O` here?
**A.** no conclusion

**Q.** With `Cc1cn([C@H]2CC[C@@H](COP(=O)(O)OP(=O)(O)OP(=O)(O)O)O2)c(=O)[nH]c1=O` as the compound, how does the mutagenic call (Species/Cell Type: Nonhuman, Assay Type: Sister-chromatid exchange (SCE) in vitro, Assay Code: SC2T, Evaluation Type: Evaluation B (Post-1980)) read?
**A.** no conclusion

**Q.** For `O=C(O)c1ccc2ccccc2n1`, which mutagenic call [11] is on record?
**A.** no conclusion

**Q.** Which results are given for `COc1cccc2c1cc([N+](=O)[O-])c1c(C(=O)O)cc3c(c12)OCO3`?
**A.** mutagenic call [8]: active; positive; mutagenic call [9]: active; positive

**Q.** With `CCOc1ccc(CC(=O)OC)cc1CSC(=N)N` as the compound, how does the mutagenic call (Species/Cell Type: Saccharomyces cerevisiae, Assay Type: Reverse gene mutation, Assay Code: YERT, Evaluation Type: Evaluation A (Pre-1980)) read?
**A.** no conclusion

**Q.** What does the source list for `c1ccc2c(c1)-c1cccc3c1c-2cc1ccccc13`?
**A.** call (Species/Cell Type: Nonhuman, Assay Code: CCG+, Evaluation Type: Evaluation A (Pre-1980)): active; positive; mutagenic call (Species/Cell Type: Nonhuman, Assay Type: Sister-chromatid exchange (SCE) in vivo, Assay Code: SC3+, Evaluation Type: Evaluation B (Post-1980)): active; positive; mutagenic call (Species/Cell Type: Nonhuman, Assay Type: Sister-chromatid exchange (SCE) in vivo, Assay Code: SC3T, Evaluation Type: Evaluation A (Pre-1980)): no conclusion

**Q.** `CC1(C)CN1` was tested. Which mutagenic call [10] did it give?
**A.** active; positive

**Q.** Which results are given for `CS(=O)(=O)OCCNC[C@@H](O)[C@@H](O)CNCCOS(C)(=O)=O`?
**A.** mutagenic call (Species/Cell Type: Human lymphocytes, Assay Type: Sister-chromatid exchange (SCE) in vitro, Assay Code: SCL+D, Dose Response: With dose response, Evaluation Type: Evaluation A (Pre-1980)): active; positive; mutagenic call (Species/Cell Type: Human, Assay Type: Sister-chromatid exchange (SCE) in vitro, Assay Code: SC1+D, Dose Response: With dose response, Evaluation Type: Evaluation A (Pre-1980)): active; positive

**Q.** Which results are given for `CN(C)c1ccc2cc3ccc(N(C)C)cc3nc2c1`?
**A.** mutagenic call (Species/Cell Type: Allium cepa, Assay Type: Chromosome aberrations, Assay Code: ALC+D, Dose Response: With dose response, Evaluation Type: Evaluation A (Pre-1980)): active; positive; mutagenic call (Species/Cell Type: Bacillus subtilis (H17 vs M45T), Assay Type: Rec-assay, spot test, DNA effects (bacterial DNA repair), Assay Code: REXT, Evaluation Type: Evaluation A (Pre-1980)): no conclusion; mutagenic call (Species/Cell Type: Chinese hamster ovary (CHO) cells, Assay Type: Forward gene mutation at the HPRT locus, Assay Code: CHO+, Evaluation Type: Evaluation B (Post-1980)): active; positive; mutagenic call (Species/Cell Type: Drosophila melanogaster, Assay Type: Sex-linked recessive lethal gene mutation, Assay Code: SRLT, Evaluation Type: Evaluation A (Pre-1980)): no conclusion; mutagenic call (Species/Cell Type: Escherichia coli polA (W3119 vs P3478), Assay Type: Rec-assay, DNA effects (bacterial DNA repair), Assay Code: RE1+, Evaluation Type: Evaluation A (Pre-1980)): active; positive; mutagenic call [4]: active; positive; mutagenic call [5]: active; positive; mutagenic call (Species/Cell Type: Mammalian polychromatic erythrocytes, Assay Type: Micronucleus test, chromosome aberrations, Assay Code: MNT+, Evaluation Type: Evaluation B (Post-1980)): active; positive; mutagenic call (Species/Cell Type: Mouse, Sex: Female, Assay Type: Spot test, gene mutation, Assay Code: MST+, Evaluation Type: Evaluation A (Pre-1980)): active; positive; call (Species/Cell Type: Nonhuman, Assay Code: CCGT, Evaluation Type: Evaluation A (Pre-1980)): no conclusion; mutagenic call (Species/Cell Type: Nonhuman, Assay Type: Sister-chromatid exchange (SCE) in vitro, Assay Code: SC2+D, Dose Response: With dose response, Evaluation Type: Evaluation A (Pre-1980)): active; positive; mutagenic call (Species/Cell Type: Saccharomyces cerevisiae, Assay Type: Forward gene mutation, Assay Code: YEFT, Evaluation Type: Evaluation A (Pre-1980)): no conclusion; mutagenic call (Species/Cell Type: Saccharomyces cerevisiae, Assay Type: Mitotic recombination or gene conversion, Assay Code: YEC+, Evaluation Type: Evaluation A (Pre-1980)): active; positive; mutagenic call (Species/Cell Type: Saccharomyces cerevisiae, Assay Type: Mitotic recombination or gene conversion, Assay Code: YEH+, Evaluation Type: Evaluation A (Pre-1980)): active; positive; mutagenic call [12]: active; positive; mutagenic call (Species/Cell Type: Salmonella typhimurium, Assay Type: Forward and reverse gene mutation, host-mediated assay, Assay Code: HMA+, Evaluation Type: Evaluation A (Pre-1980)): active; positive; mutagenic call (Species/Cell Type: Syrian hamster embryo (SA7/SHE) cells, Assay Type: Cell transformation, viral enhanced, Assay Code: CT7+, Evaluation Type: Evaluation A (Pre-1980)): active; positive; mutagenic call (Species/Cell Type: Syrian hamster embryo (SHE) cells, Assay Type: Cell transformation, clonal assay, Assay Code: CTCT, Evaluation Type: Evaluation A (Pre-1980)): no conclusion

**Q.** How did the mutagenic call (Species/Cell Type: Hordeum vulgare (barley), Assay Type: Chromosome aberrations, Assay Code: HOC+D, Dose Response: With dose response, Evaluation Type: Evaluation A (Pre-1980)) turn out when `COCC(C)OS(C)(=O)=O` (stereo not drawn) was run?
**A.** active; positive

**Q.** Which results are given for `CNN`?
**A.** mutagenic call [2]: active; positive; mutagenic call [3]: inactive; negative; call (Species/Cell Type: Nonhuman, Assay Code: CCG+L, Evaluation Type: Evaluation A (Pre-1980)): active; positive; mutagenic call (Species/Cell Type: Rodents, Sex: Male, Assay Type: Dominant lethal test, Assay Code: DLT-, Evaluation Type: Evaluation A (Pre-1980)): inactive; negative; mutagenic call [6]: inactive; negative; mutagenic call [12]: active; positive

**Q.** With `Cc1nc(N(C)C)nc(OC(=O)N(C)C)c1C` as the compound, how does the mutagenic call (Species/Cell Type: Aspergillus nidulans, Assay Type: Aneuploidy, chromosome aberrations, Assay Code: ASN-, Evaluation Type: Evaluation A (Pre-1980)) read?
**A.** inactive; negative

**Q.** For `c1ccc2c(c1)-c1ccc3ccccc3c1C1OC21` (stereo not drawn), which mutagenic call (Species/Cell Type: Mouse prostate cells, Assay Type: Cell transformation, Assay Code: CTM-, Evaluation Type: Evaluation A (Pre-1980)) is on record?
**A.** inactive; negative

**Q.** What about the mutagenic call (Species/Cell Type: Salmonella typhimurium (one or more of the five standard strains: TA98, TA100, TA1535, TA1537, and TA1538), Assay Type: Histidine reverse gene mutation, Ames assay, Assay Code: SAL+, Evaluation Type: Evaluation A (Pre-1980)) of the same compound?
**A.** active; positive

**Q.** What about the mutagenic call [7] of the same compound?
**A.** active; positive
